Consider six compounds from patent US11485735B2, “Selective CDK4/6 inhibitor and preparation thereof” (Wuxi Shuangliang Biotechnology Co., Ltd., priority 2019, dated 2022).

“Also recorded” adds a separate entry of the source.

The target in one assay is T1, CDK4/CyclinD3 (Homo sapiens, UniProt P11802).
T1 construct: purchased Wuxi Biortus Biosciences Co. Ltd
Put plainly: In-vitro kinase inhibitory activity, CDK4/CyclinD3 (Caliper EZ Reader II mobility shift). It counts as biochemical. Particulars: CDK4/CyclinD3 20 nM, ATP 2 mM, Peptide 1 μM, 27° C., 180 min; read-out: IC50 (half maximal inhibitory concentration, nM) CDK4. An outline of the steps:
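Compound was preincubated 10 min with CDK4/CyclinD3 in Tris pH 8.0 with 5 mM MgCl2, then peptide substrate and ATP were added for 180 min at 27 °C, and the reaction was stopped with EDTA. Substrate and product were separated by mobility shift. IC50 comes from non-linear dose-response fits, with at least two replicates.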

For another assay, the target named is T2, CDK6/CyclinD3 (Homo sapiens, UniProt Q00534).
T2 construct: purchased Wuxi Biortus Biosciences Co. Ltd
T2 sequence (Q00534 whole entry, species assumed): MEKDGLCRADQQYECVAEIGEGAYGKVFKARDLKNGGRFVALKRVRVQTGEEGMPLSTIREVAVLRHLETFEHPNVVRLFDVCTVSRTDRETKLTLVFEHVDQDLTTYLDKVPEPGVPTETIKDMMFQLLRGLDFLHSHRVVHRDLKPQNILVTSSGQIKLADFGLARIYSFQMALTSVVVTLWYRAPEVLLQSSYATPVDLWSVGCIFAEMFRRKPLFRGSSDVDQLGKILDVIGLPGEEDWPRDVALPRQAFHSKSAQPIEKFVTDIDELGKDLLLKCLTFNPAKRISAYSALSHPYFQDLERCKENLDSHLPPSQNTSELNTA
T2 sequence (P30281 whole entry partner, species assumed): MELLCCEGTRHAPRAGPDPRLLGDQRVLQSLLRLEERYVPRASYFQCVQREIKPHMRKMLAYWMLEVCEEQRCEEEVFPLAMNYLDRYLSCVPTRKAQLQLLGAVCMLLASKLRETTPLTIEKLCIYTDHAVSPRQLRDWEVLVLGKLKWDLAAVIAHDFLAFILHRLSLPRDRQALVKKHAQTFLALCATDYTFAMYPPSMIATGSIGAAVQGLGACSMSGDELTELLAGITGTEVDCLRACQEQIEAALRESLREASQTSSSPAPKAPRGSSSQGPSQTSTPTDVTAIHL
Briefly: In-vitro kinase inhibitory activity, CDK6/CyclinD3 (Caliper EZ Reader II mobility shift). It counts as biochemical. Conditions: CDK6/CyclinD3 20 nM, ATP 2 mM, Peptide 1 μM, 27° C., 120 min; read-out: IC50 (half maximal inhibitory concentration, nM) CDK6. An outline of the steps:
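Compound was preincubated 10 min with CDK6/CyclinD3, then peptide substrate plus ATP was added and the reaction ran 120 min at 27° C. before EDTA stop. Substrate and phosphorylated product were separated by microfluidic mobility shift, at least two replicates. IC50 from non-linear regression of dose-response curves.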

The target in another assay is CDK2 (Homo sapiens, UniProt P24941). Briefly: In-vitro kinase inhibitory activity, CDK2 (selectivity). The assay is classed as biochemical. Particulars: read-out: IC50 (half maximal inhibitory concentration, nM) CDK2.
The target in a further assay is CDK9 (Homo sapiens, UniProt P50750). Briefly: In-vitro kinase inhibitory activity, CDK9 (selectivity). The assay is classed as biochemical. Conditions: read-out: IC50 (half maximal inhibitory concentration, nM) CDK9.
Sequence of CDK9 (P50750 whole entry, species assumed): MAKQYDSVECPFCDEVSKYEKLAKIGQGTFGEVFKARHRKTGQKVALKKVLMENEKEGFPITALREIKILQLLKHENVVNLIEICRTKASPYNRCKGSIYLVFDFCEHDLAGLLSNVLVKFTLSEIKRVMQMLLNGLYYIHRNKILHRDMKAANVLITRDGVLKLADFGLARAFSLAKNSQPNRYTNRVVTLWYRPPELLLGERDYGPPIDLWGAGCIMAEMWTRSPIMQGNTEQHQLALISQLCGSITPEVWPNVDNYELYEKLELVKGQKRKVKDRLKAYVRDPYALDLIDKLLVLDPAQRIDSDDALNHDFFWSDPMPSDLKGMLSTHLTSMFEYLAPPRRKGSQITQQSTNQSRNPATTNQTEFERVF
Sequence of CDK9 (O60563 whole entry partner, species assumed): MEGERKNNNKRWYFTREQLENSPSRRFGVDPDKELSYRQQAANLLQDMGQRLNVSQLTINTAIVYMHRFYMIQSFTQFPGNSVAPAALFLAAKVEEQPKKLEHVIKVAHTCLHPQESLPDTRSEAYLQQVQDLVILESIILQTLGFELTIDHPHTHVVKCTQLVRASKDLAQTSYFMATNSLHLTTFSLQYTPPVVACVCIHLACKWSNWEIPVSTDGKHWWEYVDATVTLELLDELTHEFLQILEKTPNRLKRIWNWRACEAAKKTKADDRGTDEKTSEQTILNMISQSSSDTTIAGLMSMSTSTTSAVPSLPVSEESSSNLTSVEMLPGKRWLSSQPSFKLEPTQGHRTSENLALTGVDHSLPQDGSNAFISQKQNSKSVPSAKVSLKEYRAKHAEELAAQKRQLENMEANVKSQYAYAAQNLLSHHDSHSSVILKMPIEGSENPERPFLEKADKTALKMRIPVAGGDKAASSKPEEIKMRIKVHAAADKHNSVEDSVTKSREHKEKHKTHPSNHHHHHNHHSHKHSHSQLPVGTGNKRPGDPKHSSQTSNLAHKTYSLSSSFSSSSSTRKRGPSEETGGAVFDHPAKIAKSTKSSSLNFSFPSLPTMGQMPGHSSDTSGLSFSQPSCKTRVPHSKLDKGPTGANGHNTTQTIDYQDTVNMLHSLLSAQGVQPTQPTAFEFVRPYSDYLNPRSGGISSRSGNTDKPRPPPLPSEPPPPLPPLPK
A further assay addresses T3, CRBN (Homo sapiens, UniProt Q96SW2).
T3 construct: purchased Wuxi Biortus Biosciences Co. Ltd
Briefly: In-vitro inhibition assay of CRBN activity (fluorescence polarization, Cy5-Thalidomide). The assay is classed as binding. Particulars: Cy5-Thalidomide 10 nM, CRBN 180 nM, 27° C., 60 min. The procedure:
The final volume for assay was 20 μL, and the reaction temperature was 27° C. CRBN was produced by Wuxi Biortus Biosciences Co. Ltd. The concentration of the kinase was determined by the optimization experiment, and the kinase was diluted with an assay buffer (50 mM Tris, pH 7.5, 100 mM NaCl, and 0.01% Pluronic acid) to obtain a corresponding kinase solution (2× concentration). The compound was dissolved in dimethyl sulfoxide (DMSO) to reach a concentration of 10 mM. […] 5 μL of the test compound solution was mixed with 5 μL of the substrate solution, and 10 μL of the kinase solution was added to the mixture. The mixture was incubated at 27° C. for 60 min. Each assay was conducted in at least two replicates. […].
The final concentrations of the reagents in the assay were as follows. […] The data of fluorescence polarization assay were read on TECAN infinite M1000. Data were calculated by using GraphPad Prism version 6.0, and IC50 values were obtained by adjusting the non-linear regression models of the dose response curves.
(In general: Polarisation of emitted light reports the rotation of a fluorescent probe.)

Assay [1] relates to human colon cancer COLO205 cells. Briefly: Growth inhibition of tumor cells cultured in vitro, CellTiter-Glo, COLO205. It counts as cell-based. Conditions: for IC50: COLO205, 72 h, CellTiter-Glo; for inhibitory effect on human colon cancer COLO205 cells (in words): summary of the table. In short, it runs like this:
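Cells were seeded at 6000/well, COLO205 in RPMI-1640 with 10% FBS and MCF-7 in MEM with 10% FBS plus 0.01 mg/mL insulin, and grown 24 h before dosing. Compound dilutions in medium (10 to 0.0015 μM/L before addition, DMSO <0.1%) were tested in triplicate for 72 h at 37° C. IC50 was derived from CellTiter-Glo luminescence.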
For orientation: In ATP-based viability assays light output follows the ATP content of the culture.

For assay [2], the system named is human breast cancer MCF-7 cells. Briefly: Growth inhibition of tumor cells cultured in vitro, CellTiter-Glo, MCF-7. It counts as cell-based. Conditions: for IC50: MCF-7, 72 h, CellTiter-Glo; for inhibitory effect on human breast cancer MCF-7 cells (in words): summary of the table. The text has this: Test drugs: Compounds of the present disclosure. Tumor cell strains: human colon cancer COLO205 cells and human breast cancer MCF-7 cells.
The growth inhibitory effects on human tumor cells COLO205 and MCF-7 cultured in vitro were observed by using a CellTiter-Glo Luminescent Cell Viability Assay Kit (Promega, Cat. No. G7572). Human tumor cells COLO205 and MCF-7 were both purchased from the American Type Culture Collection.
CellTiter-Glo Luminescent Cell Viability Assay: The previous cell culture medium was discarded, and the tumor cells were rinsed twice with PBS. An appropriate amount of trypsin (VWR, Cat. No. 0458-25G) was added to digest the tumor cells until most of the cells turned round and were detached from the wall. The trypsin digestion was terminated by adding an RPMI-1640 medium (COLO205; Gibco, Cat. No. A10491-01) containing 10% fetal bovine serum (Hyclone, Cat. No. SV30160.03) and MEM medium (MCF-7; Gibco, Cat. No. 10370-021) containing 10% fetal bovine serum and 0.01 mg/mL insulin, and the cells were gently pipetted with a pipette to completely suspend the tumor cells. After cell counting, a tumor cell suspension was prepared using a complete culture medium and the final concentration was 6.7×10^4 cells/mL. 90 μL of the tumor cell suspension was seeded in each well of a 96-well culture plate (6000 cells/well). The plate was then placed in an incubator with 5% CO2 at 37° C. and incubated for 24 h. A test drug was added by using an Agilent Bravo Automated Liquid Handling Platform, and 10 μL of the sample was added in each well. The assay was conducted in triplicate for each group. A compound of the present disclosure was dissolved in DMSO (BioRoYee, Cat. No. AF0231), and then the resulting solution was diluted to 10 μM/L, 3.33 μM/L, 1.11 μM/L, 0.37 μM/L, 0.123 μM/L, 0.041 μM/L, 0.0137 μM/L, 0.0046 μM/L, and 0.0015 μM/L with the culture medium. The concentration of DMSO was lower than 0.1%, and a culture medium containing 0.1% DMSO was added to the well which was set as a vehicle control group. The 96-well plate was placed in an incubator with 5% CO2 at 37° C. and incubated for 72 h. The 96-well plate to be tested was equilibrated at room temperature for 30 min, and 100 μL of Cell Titer-Glo reagent was added to each well. The contents of each well were mixed in an orbital shaker for 2 min to induce cell lysis, and the plate was incubated at room temperature for 10 min to achieve a constant value of fluorescent intensity. Finally, the chemiluminescence intensity was detected by TECAN M1000. Data were processed with Graphpad Prism 6.0 software. The growth curve of the cells was plotted. The cell growth inhibition rate of a drug was calculated, and the half maximal inhibitory concentration (IC50) of the drug was determined.

T1 sequence (P11802 whole entry, species assumed): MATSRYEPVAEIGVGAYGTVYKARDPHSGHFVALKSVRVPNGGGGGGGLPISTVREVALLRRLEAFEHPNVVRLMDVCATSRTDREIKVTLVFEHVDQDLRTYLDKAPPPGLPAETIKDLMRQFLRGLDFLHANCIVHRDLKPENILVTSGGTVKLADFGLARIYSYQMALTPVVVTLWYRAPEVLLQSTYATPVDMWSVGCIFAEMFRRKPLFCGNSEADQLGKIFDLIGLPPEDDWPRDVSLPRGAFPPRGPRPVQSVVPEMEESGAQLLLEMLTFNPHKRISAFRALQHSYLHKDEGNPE
T1 sequence (P30281 whole entry partner, species assumed): as the sequence (P30281 whole entry partner, species assumed) above
T3 sequence (Q96SW2 whole entry, species assumed): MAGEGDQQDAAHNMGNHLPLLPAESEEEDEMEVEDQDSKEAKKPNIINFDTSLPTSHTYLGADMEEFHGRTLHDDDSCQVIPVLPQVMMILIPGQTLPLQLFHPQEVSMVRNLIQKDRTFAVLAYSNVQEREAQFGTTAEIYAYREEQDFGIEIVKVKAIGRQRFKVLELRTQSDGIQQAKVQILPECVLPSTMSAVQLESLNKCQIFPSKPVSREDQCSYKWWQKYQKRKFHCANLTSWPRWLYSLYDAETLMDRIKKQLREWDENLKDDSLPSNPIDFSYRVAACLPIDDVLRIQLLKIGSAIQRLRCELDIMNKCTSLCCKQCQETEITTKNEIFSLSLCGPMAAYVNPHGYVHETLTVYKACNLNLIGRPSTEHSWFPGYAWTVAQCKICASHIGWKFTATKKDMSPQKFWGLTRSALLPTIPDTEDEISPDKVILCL

As to `CC(=O)c1c(C)c2cnc(Nc3ccc(N4CCN(CCN5CCN(c6ccc7c(c6)CN(C6CCC(=O)NC6=O)C7=O)CC5)CC4)cn3)nc2n(C2CCCC2)c1=O` (single isomer, unassigned) [Compound 1, 3-(5-(4-(2-(4-(6-((6-acetyl-8-cyclopentyl-5-methyl-7-oxo-7,8-dihydropyrido[2,3-d]pyrimidin-2-yl)amino)pyridin-3-yl)piperazin-1-yl)ethyl)piperazin-1-yl)-1-oxoisoindolin-2-yl)piperidine-2,6-dione], the IC50 on CDK4/CyclinD3 was 38.8 nM; on CDK6/CyclinD3 it was 21.3 nM; on CDK2, greater than 10000 nM; on CDK9, 4180 nM; at CRBN, 3000 nM; in assay [1] (Homo sapiens, COLO 205, 72 h), 45.7 nM. The compound also displayed an IC50 in assay [2] (Homo sapiens, MCF7, 72 h) greater than 10000 nM. Also, in assay [1], the “inhibitory effect on human colon cancer COLO205 cells (in words)” value is listed as “relatively good inhibitory effects”.

In the case of `CC(=O)c1c(C)c2cnc(Nc3ccc(N4CCN(CCN5CCN(c6ccc7c(c6)CN(C6CCC(=O)NC6=O)C7=O)CC5)CC4)cn3)nc2n(C2CCCC2)c1=O.Cl.Cl` (single isomer, unassigned) [Compound 2, 3-(5-(4-(2-(4-(6-((6-acetyl-8-cyclopentyl-5-methyl-7-oxo-7,8-dihydropyrido[2,3-d]pyrimidin-2-yl)amino)pyridin-3-yl)piperazin-1-yl)ethyl)piperazin-1-yl)-1-oxoisoindolin-2-yl)piperidine-2,6-dione dihydrochloride], the IC50 on CDK4/CyclinD3 was 36.8 nM; at CDK6/CyclinD3 it was 22 nM; at CDK2 it was greater than 10000 nM; on CDK9, 8710 nM; against CRBN it was 3000 nM; in assay [1] (dihydrochloride) it was 25.5 nM. This compound came in with an IC50 in assay [2] greater than 10000 nM. In addition, the “inhibitory effect on human colon cancer COLO205 cells (in words)” value in assay [1] (dihydrochloride) is given as “relatively good inhibitory effects; also recorded: the best inhibitory effect”.

For the compound `CC(=O)c1c(C)c2cnc(Nc3ccc(N4CCN(CCN5CCC(CN6CCN(c7ccc8c(c7)CN(C7CCC(=O)NC7=O)C8=O)CC6)CC5)CC4)cn3)nc2n(C2CCCC2)c1=O.Cl.Cl.Cl` (single isomer, unassigned) [Compound 4, 3-(5-(4-((1-(2-(4-(6-((6-acetyl-8-cyclopentyl-5-methyl-7-oxo-7,8-dihydropyrido[2,3-d]pyrimidin-2-yl)amino)pyridin-3-yl)piperazin-1-yl)ethyl)piperidin-4-yl)methyl)piperazin-1-yl)-1-oxoisoindolin-2-yl)piperidine-2,6-dione trihydrochloride], the IC50 is 10.7 nM on CDK4/CyclinD3; 9.7 nM on CDK6/CyclinD3; greater than 10000 nM on CDK2; 8640 nM on CDK9; 2080 nM against CRBN; 69.2 nM in assay [1] (Homo sapiens, COLO 205, 72 h). Also, the IC50 in assay [2] (Homo sapiens, MCF7, 72 h) is 50.5 nM. The “inhibitory effect on human colon cancer COLO205 cells (in words)” value in assay [1] is “relatively good inhibitory effects”. The “inhibitory effect on human breast cancer MCF-7 cells (in words)” value in assay [2] is “relatively good inhibitory effects”.

`CC(=O)c1c(C)c2cnc(Nc3ccc(N4CCN(CCCCN5CCC(CN6CCN(c7ccc8c(c7)CN(C7CCC(=O)NC7=O)C8=O)CC6)CC5)CC4)cn3)nc2n(C2CCCC2)c1=O` (stereo not shown) [Compound 5, 3-(5-(4-((1-(4-(4-(6-((6-acetyl-8-cyclopentyl-5-methyl-7-oxo-7,8-dihydropyrido[2,3-d]pyrimidin-2-yl)amino)pyridin-3-yl)piperazin-1-yl)butyl)piperidin-4-yl)methyl)piperazin-1-yl)-1-oxoisoindolin-2-yl)piperidine-2,6-dione]: the IC50 at CDK4/CyclinD3 was determined as 10 nM; on CDK6/CyclinD3, 6.6 nM; on CDK2 it was 9910 nM; at CDK9 it was 5470 nM; on CRBN, 5280 nM; in assay [1] (Homo sapiens, COLO 205, 72 h) it was 291 nM. In assay [2] (Homo sapiens, MCF7, 72 h), the IC50 came to 30.4 nM. Also, the “inhibitory effect on human breast cancer MCF-7 cells (in words)” value in assay [2] is “relatively good inhibitory effects”.

As to `CC(=O)c1c(C)c2cnc(Nc3ccc(N4CCN(CC(=O)N5CCC(C(=O)N6CCN(c7ccc8c(c7)CN([C@H]7CCC(=O)NC7=O)C8=O)CC6)CC5)CC4)cn3)nc2n(C2CCCC2)c1=O` [Compound 7, (S)-3-(5-(4-(1-(2-(4-(6-((6-acetyl-8-cyclopentyl-5-methyl-7-oxo-7,8-dihydropyrido[2,3-d]pyrimidin-2-yl)amino)pyridin-3-yl)piperazin-1-yl)acetyl)piperidin-4-carbonyl)piperazin-1-yl)-1-oxoisoindolin-2-yl)piperidine-2,6-dione], the IC50 was 54.7 nM at CDK4/CyclinD3; 30 nM at CDK6/CyclinD3; 7480 nM on CDK2; 9920 nM on CDK9; 1420 nM on CRBN.

In the case of `CC(=O)c1c(C)c2cnc(Nc3ccc(N4CCN(CCN5CCC(C(=O)N6CCN(c7ccc8c(c7)CN([C@H]7CCC(=O)NC7=O)C8=O)CC6)CC5)CC4)cn3)nc2n(C2CCCC2)c1=O` [Compound 8, (S)-3-(5-(4-(1-(2-(4-(6-((6-acetyl-8-cyclopentyl-5-methyl-7-oxo-7,8-dihydropyrido[2,3-d]pyrimidin-2-yl)amino)pyridin-3-yl)piperazin-1-yl)ethyl)piperidin-4-carbonyl)piperazin-1-yl)-1-oxoisoindolin-2-yl)piperidine-2,6-dione], the IC50 at CDK4/CyclinD3 amounted to 19.9 nM; at CDK6/CyclinD3 it was 16.1 nM; on CDK2, 9000 nM; at CDK9, 3810 nM; against CRBN, 1210 nM; in assay [1] (Homo sapiens, COLO 205, 72 h) it was 96.2 nM. Also, the IC50 in assay [2] (Homo sapiens, MCF7, 72 h) was determined as 821 nM. The “inhibitory effect on human colon cancer COLO205 cells (in words)” value in assay [1] was “relatively good inhibitory effects”.
